The supplement of paper PMC10307832

Legend:
Experiment in all cases: relative viability (nuclei count vs DMSO), 5 days (fraction); higher = more cells survive
IPA-3 + Olaparib = compound: C1=CC=C2C(=C1)C=CC(=C2SSC3=C(C=CC4=CC=CC=C43)O)O [IPA-3] + O=C(c1cc(Cc2n[nH]c(=O)c3ccccc23)ccc1F)N1CCN(C(=O)C2CC2)CC1 [Olaparib] (partner 8 µM)
Summary of the method: (§1)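 Lung cancer cell lines in 1536-well plates were dosed by pin tool the day after seeding, either with one drug alone or with a fixed anchor-drug dose plus five library-drug doses (not always all listed) in √10 steps. After 5 days, cells were fixed and their nuclei stained in one step (final 0.05% Triton X-100, 1% formaldehyde, 1 ug/ml Hoechst), then counted on 4× images. Relative viability is the nuclei count in treated wells divided by that in vehicle wells. Values are medians of duplicate plates.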

Doramapimod + Phenformin = compound: Cc1ccc(-n2nc(C(C)(C)C)cc2NC(=O)Nc2ccc(OCCN3CCOCC3)c3ccccc23)cc1 [Doramapimod] + N=C(N)NC(=N)NCCc1ccccc1 [Phenformin] (partner 250 µM)
Summary of the method: as §1

Doramapimod + Pemetrexed = compound: Cc1ccc(-n2nc(C(C)(C)C)cc2NC(=O)Nc2ccc(OCCN3CCOCC3)c3ccccc23)cc1 [Doramapimod] + Nc1nc2[nH]cc(CCc3ccc(C(=O)N[C@@H](CCC(=O)O)C(=O)O)cc3)c2c(=O)[nH]1 [Pemetrexed] (partner 0.2 µM)
Summary of the method: as §1

Doramapimod + Olaparib = compound: Cc1ccc(-n2nc(C(C)(C)C)cc2NC(=O)Nc2ccc(OCCN3CCOCC3)c3ccccc23)cc1 [Doramapimod] + O=C(c1cc(Cc2n[nH]c(=O)c3ccccc23)ccc1F)N1CCN(C(=O)C2CC2)CC1 [Olaparib] (partner 8 µM)
Summary of the method: as §1

Cell Line | relative viability (IPA-3 + Olaparib; first compound 0.2 µM) | relative viability (IPA-3 + Olaparib; first compound 0.6325 µM) | relative viability (IPA-3 + Olaparib; first compound 2 µM) | relative viability (IPA-3 + Olaparib; first compound 6.325 µM) | relative viability (IPA-3 + Olaparib; first compound 20 µM) | relative viability (Doramapimod + Phenformin; first compound 0.02 µM) | relative viability (Doramapimod + Phenformin; first compound 0.06325 µM) | relative viability (Doramapimod + Phenformin; first compound 0.2 µM) | relative viability (Doramapimod + Phenformin; first compound 0.6325 µM) | relative viability (Doramapimod + Phenformin; first compound 2 µM) | relative viability (Doramapimod + Pemetrexed; first compound 0.02 µM) | relative viability (Doramapimod + Pemetrexed; first compound 0.06325 µM) | relative viability (Doramapimod + Pemetrexed; first compound 0.2 µM) | relative viability (Doramapimod + Pemetrexed; first compound 0.6325 µM) | relative viability (Doramapimod + Pemetrexed; first compound 2 µM) | relative viability (Doramapimod + Olaparib; first compound 0.02 µM) | relative viability (Doramapimod + Olaparib; first compound 0.06325 µM) | relative viability (Doramapimod + Olaparib; first compound 0.2 µM) | relative viability (Doramapimod + Olaparib; first compound 0.6325 µM) | relative viability (Doramapimod + Olaparib; first compound 2 µM)
HCC-78 | 0.885 | 0.836 | 0.805 | 0.881 | 0.932 | 0.704 | 0.819 | 0.743 | 0.813 | 0.543 | 0.879 | 0.883 | 0.918 | 0.967 | 0.887 | 0.779 | 0.715 | 0.796 | 0.856 | 0.729
NCI-H2405 | 0.994 | 0.832 | 0.939 | 0.865 | 0.9 | 0.402 | 0.374 | 0.335 | 0.423 | 0.316 | 1.13 | 1.13 | 1.02 | 1.18 | 1.01 | 0.912 | 0.828 | 0.765 | 0.816 | 0.836
HOP-62 | 0.848 | 0.401 | 0.47 | 0.392 | 0.274 | 0.685 | 0.706 | 0.753 | 0.682 | 0.646 | 0.242 | 0.306 | 0.295 | 0.326 | 0.309 | 0.315 | 0.369 | 0.424 | 0.495 | 0.467
NCI-H650 | 0.473 | 0.391 | 0.387 | 0.379 | 0.381 | 0.495 | 0.458 | 0.527 | 0.431 | 0.389 | 0.741 | 0.938 | 0.976 | 1.06 | 0.9 | 0.468 | 0.47 | 0.403 | 0.413 | 0.395
NCI-H358 | 0.649 | 0.514 | 0.879 | 0.505 | 0.564 | 0.301 | 0.314 | 0.305 | 0.385 | 0.356 | 0.176 | 0.167 | 0.162 | 0.169 | 0.175 | 0.54 | 0.565 | 0.516 | 0.676 | 0.511
BEN | 1.07 | 1.15 | 1.08 | 1.06 | 1.23 | 0.29 | 0.245 | 0.27 | 0.242 | 0.278 | 0.74 | 0.849 | 0.795 | 0.673 | 0.795 | 1.05 | 1.1 | 1.01 | 0.901 | 0.967
SW 1573 | 0.665 | 0.403 | 0.404 | 0.403 | 0.0864 | 0.355 | 0.304 | 0.306 | 0.301 | 0.236 | 0.772 | 0.794 | 0.773 | 0.938 | 0.721 | 0.446 | 0.425 | 0.456 | 0.546 | 0.433
ChaGo-K-1 | 0.458 | 0.421 | 0.413 | 0.441 | 0.392 | 0.476 | 0.507 | 0.459 | 0.534 | 0.428 | 0.263 | 0.254 | 0.255 | 0.26 | 0.243 | 0.472 | 0.423 | 0.438 | 0.379 | 0.398
SK-MES-1 | 0.763 | 0.694 | 0.652 | 0.498 | 0.241 | 0.634 | 0.648 | 0.648 | 0.628 | 0.568 | 0.895 | 0.96 | 0.986 | 0.942 | 0.795 | 0.707 | 0.694 | 0.638 | 0.683 | 0.607
SW 900 | 0.684 | 0.683 | 0.811 | 0.832 | 1.03 | 0.612 | 0.665 | 0.676 | 0.76 | 0.635 | 0.513 | 0.513 | 0.478 | 0.502 | 0.479 | 0.842 | 0.728 | 0.895 | 0.939 | 0.846
NCI-H1755 | 0.879 | 0.851 | 0.804 | 0.849 | 0.895 | 0.577 | 0.596 | 0.6 | 0.541 | 0.559 | 0.328 | 0.371 | 0.435 | 0.394 | 0.35 | 0.865 | 0.85 | 0.847 | 0.811 | 0.829
NCI-H2023 | 0.514 | 0.503 | 0.624 | 0.547 | 0.395 | 0.413 | 0.379 | 0.404 | 0.415 | 0.323 | 0.215 | 0.219 | 0.226 | 0.259 | 0.215 | 0.546 | 0.534 | 0.491 | 0.563 | 0.456
LC-2-ad | 0.811 | 0.738 | 0.699 | 0.751 | 0.683 | 0.571 | 0.619 | 0.641 | 0.517 | 0.487 | 0.268 | 0.291 | 0.297 | 0.28 | 0.289 | 0.692 | 0.801 | 0.759 | 0.732 | 0.766
NCI-H1666 | 0.854 | 0.655 | 0.764 | 0.749 | 0.836 | 0.601 | 0.555 | 0.61 | 0.581 | 0.554 | 0.841 | 0.916 | 0.819 | 0.948 | 0.913 | 0.844 | 0.743 | 0.751 | 0.775 | 0.748
201T | 0.833 | 0.845 | 0.833 | 0.83 | 0.885 | 0.453 | 0.471 | 0.448 | 0.497 | 0.394 | 0.308 | 0.333 | 0.347 | 0.331 | 0.318 | 0.869 | 1.01 | 0.848 | 0.96 | 0.839
NCI-H2009 | 0.662 | 0.68 | 0.708 | 0.635 | 0.622 | 0.506 | 0.543 | 0.546 | 0.478 | 0.408 | 1.03 | 1.04 | 1.06 | 1.01 | 1 | 0.669 | 0.697 | 0.669 | 0.712 | 0.622
NCI-H1395 | 0.507 | 0.456 | 0.465 | 0.474 | 0.457 | 0.483 | 0.474 | 0.44 | 0.485 | 0.365 | 0.82 | 1.04 | 0.889 | 0.836 | 0.696 | 0.463 | 0.462 | 0.466 | 0.498 | 0.421
NCI-H2228 | 0.662 | 0.514 | 0.404 | 0.559 | 0.471 | 0.249 | 0.385 | 0.273 | 0.333 | 0.27 | 0.339 | 0.354 | 0.322 | 0.393 | 0.308 | 0.558 | 0.599 | 0.857 | 0.811 | 0.592
LU99A | 0.304 | 0.268 | 0.291 | 0.277 | 0.249 | 0.768 | 0.851 | 0.942 | 0.846 | 0.712 | 0.175 | 0.196 | 0.155 | 0.18 | 0.323 | 0.273 | 0.304 | 0.27 | 0.259 | 0.256
NCI-H1437 | 0.629 | 0.597 | 0.639 | 0.608 | 0.565 | 0.359 | 0.271 | 0.3 | 0.275 | 0.273 | 0.291 | 0.287 | 0.323 | 0.329 | 0.302 | 0.645 | 0.641 | 0.654 | 0.657 | 0.637
EKVX | 0.942 | 0.934 | 0.787 | 0.774 | 0.86 | 0.256 | 0.24 | 0.253 | 0.179 | 0.204 | 0.426 | 0.34 | 0.325 | 0.415 | 0.357 | 0.955 | 0.775 | 0.888 | 0.844 | 0.742
NCI-H520 | 0.322 | 0.278 |  | 0.367 | 0.298 | 0.632 | 0.62 | 0.533 | 0.492 | 0.346 | 0.607 | 0.638 | 0.732 | 0.537 | 0.683 | 0.336 | 0.359 | 0.354 | 0.364 | 0.305
LCLC-97TM1 | 0.397 | 0.337 | 0.475 | 0.265 | 0.359 | 0.456 | 0.424 | 0.488 | 0.38 | 0.269 | 0.181 | 0.171 | 0.164 | 0.184 | 0.156 | 0.454 | 0.477 | 0.539 | 0.426 | 0.254
NCI-H2170 | 0.67 | 0.561 | 0.646 | 0.614 | 0.624 | 0.418 | 0.403 | 0.474 | 0.368 | 0.426 | 0.278 | 0.261 | 0.256 | 0.28 | 0.259 | 0.596 | 0.643 | 0.57 | 0.588 | 0.605
NCI-H1793 | 0.699 | 0.773 | 0.923 | 0.893 | 1.2 | 0.365 | 0.346 | 0.346 | 0.381 | 0.256 | 0.885 | 0.963 | 0.957 | 0.918 | 0.657 | 0.741 | 0.816 | 0.768 | 1.08 | 0.821
NCI-H3122 | 0.655 | 0.608 | 0.57 | 0.644 | 0.588 | 0.381 | 0.423 | 0.407 | 0.38 | 0.36 | 0.197 | 0.207 | 0.187 | 0.207 | 0.196 | 0.694 | 0.62 | 0.721 | 0.599 | 0.599
PC-14 | 0.286 | 0.29 | 0.335 | 0.222 | 0.134 | 0.662 | 0.721 | 0.809 | 0.762 | 0.475 | 0.129 | 0.128 | 0.134 | 0.148 | 0.109 | 0.351 | 0.36 | 0.342 | 0.281 | 0.269
EPLC-272H | 1.16 | 0.628 | 0.797 | 0.787 | 0.887 | 0.294 | 0.243 | 0.356 | 0.291 | 0.274 | 0.351 | 0.301 | 0.303 | 0.374 | 0.327 | 0.732 | 0.766 | 0.726 | 1.03 | 0.717
A-427 | 0.73 | 0.723 | 0.697 | 0.607 | 0.662 | 0.269 | 0.464 | 0.388 |  | 0.318 | 0.926 | 1 | 1 |  | 0.988 | 0.86 | 0.85 | 0.838 |  | 0.738
